# Patent US20110059910A1, “Novel aromatic fluoroglycoside derivatives, pharmaceuticals comprising said compounds and the use thereof” (SANOFI-AVENTIS, priority 2008, published 2011)
# Molecular target: T1, human sodium-dependent glucose transporter 1 (SGLT1, SLC5A1) (Homo sapiens, UniProt P13866)
# T1 construct: Bases 11 to 2005 correspond to the complete coding region of human SGLT1; expressed in transfected cells
# T1 sequence (P13866 1-664): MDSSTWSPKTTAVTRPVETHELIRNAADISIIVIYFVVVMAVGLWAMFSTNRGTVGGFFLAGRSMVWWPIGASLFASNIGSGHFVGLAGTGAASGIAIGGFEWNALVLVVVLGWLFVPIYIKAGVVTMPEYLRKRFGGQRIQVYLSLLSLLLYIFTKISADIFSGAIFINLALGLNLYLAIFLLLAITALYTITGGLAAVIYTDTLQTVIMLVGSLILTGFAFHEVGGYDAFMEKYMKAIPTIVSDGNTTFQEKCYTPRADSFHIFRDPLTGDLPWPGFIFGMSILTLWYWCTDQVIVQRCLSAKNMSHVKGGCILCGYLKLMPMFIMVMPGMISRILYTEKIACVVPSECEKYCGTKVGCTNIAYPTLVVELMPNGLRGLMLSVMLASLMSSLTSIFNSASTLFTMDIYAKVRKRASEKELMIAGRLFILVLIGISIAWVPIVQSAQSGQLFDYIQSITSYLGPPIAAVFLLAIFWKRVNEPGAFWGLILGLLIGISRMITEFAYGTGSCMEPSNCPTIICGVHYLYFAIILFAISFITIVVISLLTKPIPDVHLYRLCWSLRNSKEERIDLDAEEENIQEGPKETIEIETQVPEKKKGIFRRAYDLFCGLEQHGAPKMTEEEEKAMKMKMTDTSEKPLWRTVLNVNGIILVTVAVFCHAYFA
# Assay: Inhibition of the transport activity of human SGLT1 in vitro (α-MDG uptake in CHO-TRex-hSGLT1 cells)
# Type: cell-based
# Conditions: 50 μM α-MDG, 30 min at room temperature
# Excerpt: Inhibition of the Transport Activity of the Human Sodium-Dependent Glucose Transporter 1 (SGLT1, SLC5A1) In Vitro:
# 1. Cloning of an Expression Vector for Human SGLT1
# The cDNA for human SGLT1 was introduced into the pcDNA4/TO vector (Invitrogen) by means of standard methods of molecular biology as described in Sambrook et al. (Molecular Cloning, A Laboratory Manual, Second Edition). […] Bases 11 to 2005 correspond to the complete coding region of human SGLT1.
# 2. Production of a Recombinant Cell Line with Inducible Expression of Human SGLT1
# The expression vector for human SGLT1 was introduced into CHO-TRex cells (Invitrogen) by means of FuGene6 lipofection (Roche). To select single cell clones, 600 μg/ml of Zeocin (Invitrogen) was added to the cell culture medium (nutrient mixture F-12 (Ham), Invitrogen) supplemented with 10% fetal calf serum (BD Biosciences), 10 μg/ml Blasticidin S(CN Biosciences), 100 units/ml penicillin, 100 units/ml streptomycin). The functionality of the single cell clones resulting from the selection was tested via their uptake activity for radiolabeled methyl-α-D-glucopyranoside. That cell clone with the highest uptake activity for methyl-α-D-glucopyranoside, referred to hereinafter as CHO-TRex-hSGLT1, was selected for the further experiments and cultured further in the presence of 600 μg/ml Zeocin.
# 3. Measurement of the Inhibiting Action of Test Substances on the Uptake of methyl-α-D-glucopyranoside (α-MDG)
# CHO-TRex-hSGLT1 cells were seeded in cell culture medium in a concentration of 50 000 cells per well in Cytostar-T scintillating 96-well plates (Amersham Biosciences) and cultivated for 24 h. The expression of the recombinant human SGLT1 was induced by adding 1 μg/ml tetracycline for a further 24 h. For α-MDG uptake experiments, the cells were washed with PBS and then starved at 37° C. in starvation medium (PBS supplemented with 10% fetal calf serum) for 1 hour. After a further washing step with transport assay buffer (140 mM sodium chloride, 2 mM potassium chloride, 1 mM magnesium chloride, 1 mM calcium chloride, 10 mM HEPES/Tris, pH 7.5), the cells were incubated at room temperature either in the absence or presence of test substances of different concentration for 15 min. The test substances were diluted correspondingly in transport assay buffer proceeding from a 10 mM stock solution in dimethyl sulfoxide (40 μl/well). The assay was subsequently started by adding 10 μl of a mixture of radiolabeled methyl-α-D-[U-^14C]glucopyranoside (Amersham) and unlabeled methyl-α-D-glucopyranoside (Acros). The final concentration of methyl-α-D-glucopyranoside in the assay was 50 μM. After an incubation time of 30 min at room temperature, the reaction was stopped by adding 50 μl/well of 10 mM methyl-α-D-glucopyranoside in transport assay buffer (4° C.), and the radioactivity taken up into the cells was determined in a MicroBeta Scintillation Microplate Reader (Wallac).
# The half-maximum inhibiting action of the test substances (IC50 value) was determined as follows: • 4. Determination of the value for 0% inhibition. This is the measurement in the absence of substance, measured in sodium-containing transport assay buffer. • 5. Determination of the value for 100% inhibition. This is the measurement in the absence of substance, measured in sodium-free transport assay buffer (140 mM choline chloride, 2 mM potassium chloride, 1 mM magnesium chloride, 1 mM calcium chloride, 10 mM HEPES/Tris, pH7.5). • 6. Calculation of the percentage inhibition values of those measurements which were carried out in the presence of different concentrations of test substance. From this, it was then possible to determine that concentration of the test substance which reduces the uptake of the methyl-α-D-glucopyranoside by 50% (IC50 value).
row,Structure (SMILES),IC50
1,CCc1ccc(Cc2cc(C3OC(CO)C(F)(F)C(O)C3O)ccc2Cl)cc1 (centres unmarked) [Example 1],8 µM
2,CCOc1ccc(Cc2cc(C3OC(CO)C(F)(F)C(O)C3O)ccc2Cl)cc1 (centres unmarked) [Example 2],8 µM
3,CCOC(=O)OCC1OC(c2ccc(F)c(Cc3ccc(OC)cc3)c2)C(O)C(O)C1F (centres unmarked) [Example 8],6.6 µM
4,COc1ccc(Cc2cc(C3OC(CO)C(F)C(O)C3O)ccc2F)cc1 (centres unmarked) [Example 9],3.6 µM
5,CCOC(=O)OCC1OC(c2ccc(F)c(Cc3ccc(OC)cc3)c2)C(O)C(O)C1(F)F (centres unmarked) [Example 10],13 µM
6,COc1ccc(Cc2cc(C3OC(CO)C(F)(F)C(O)C3O)ccc2F)cc1 (centres unmarked) [Example 11],16 µM
7,CCOC(=O)OCC1OC(c2ccc(Cl)c(Cc3ccc(OCC)cc3)c2)C(O)C(O)C1F (centres unmarked) [Example 16],25 µM
8,CCOC(=O)OCC1OC(c2ccc(Cl)c(Cc3ccc(OCC)cc3)c2)C(O)C(O)C1(F)F (centres unmarked) [Example 18],42 µM
9,CCOC(=O)OCC1OC(c2ccc(Cl)c(Cc3ccc(OC)cc3)c2)C(O)C(O)C1(F)F (centres unmarked) [Example 21],50 µM
10,CCOC(=O)OCC1OC(c2ccc(Cl)c(Cc3ccc(OC(F)(F)F)cc3)c2)C(O)C(O)C1F (centres unmarked) [Example 24],23 µM
11,OCC1OC(c2ccc(Cl)c(Cc3ccc(OC(F)(F)F)cc3)c2)C(O)C(O)C1F (centres unmarked) [Example 25],3.5 µM
12,CCOC(=O)OCC1OC(c2ccc(Cl)c(Cc3ccc(OC(F)(F)F)cc3)c2)C(O)C(O)C1(F)F (centres unmarked) [Example 26],> 10 µM
13,OCC1OC(c2ccc(Cl)c(Cc3ccc(OC(F)(F)F)cc3)c2)C(O)C(O)C1(F)F (centres unmarked) [Example 27],16 µM
14,CC(C)Oc1ccc(Cc2cc([C@@H]3O[C@H](CO)C(F)(F)[C@H](O)[C@H]3O)ccc2Cl)cc1 [Example 31],12 µM
15,CCOC(=O)OCC1OC(c2ccc(Cl)c(Cc3ccc(OC)cn3)c2)C(O)C(O)C1F (centres unmarked) [Example 35],4.3 µM
16,COc1ccc(Cc2cc(C3OC(CO)C(F)C(O)C3O)ccc2Cl)nc1 (centres unmarked) [Example 36],2.7 µM
17,CCOC(=O)OCC1OC(c2ccc(Cl)c(Cc3ccc(OC)cn3)c2)C(O)C(O)C1(F)F (centres unmarked) [Example 37],23.4 µM
18,COc1ccc(Cc2cc(C3OC(CO)C(F)(F)C(O)C3O)ccc2Cl)nc1 (centres unmarked) [Example 38],26.5 µM
19,CCOC(=O)OC[C@H]1O[C@@H](c2ccc(OC(F)(F)F)c(Cc3ccc(OC)cc3)c2)[C@H](O)[C@@H](O)[C@@H]1F [Example 39],22.8 µM
20,CCOC(=O)OC[C@H]1O[C@@H](c2ccc(OC(F)(F)F)c(Cc3ccc(OC)cc3)c2)[C@H](O)[C@@H](O)C1(F)F [Example 41],11.8 µM
21,COc1ccc(Cc2cc([C@@H]3O[C@H](CO)C(F)(F)[C@H](O)[C@H]3O)ccc2OC(F)(F)F)cc1 [Example 42],3.3 µM
22,OC[C@H]1O[C@@H](c2ccc(Cl)c(Cc3ccc(Cl)cc3)c2)[C@H](O)[C@@H](O)C1(F)F [Example 46],2.6 µM
23,CCOC(=O)OC[C@H]1O[C@@H](c2ccc(C(F)(F)F)c(Cc3ccc(OC)cc3)c2)[C@H](O)[C@@H](O)C1(F)F [Example 49],> 100 µM
24,COc1ccc(Cc2cc([C@@H]3O[C@H](CO)C(F)(F)[C@H](O)[C@H]3O)ccc2C(F)(F)F)cc1 [Example 50],7.3 µM

# Results, then the compound that gave them:
row,IC50,Structure (SMILES)
1,0.97 µM,CCc1ccc(Cc2cc(C3OC(CO)C(F)C(O)C3O)ccc2Cl)cc1 (centres unmarked) [Example 3]
2,0.174 µM,COc1ccc(Cc2cccc(C3OC(CO)C(F)C(O)C3O)c2)cc1 (centres unmarked) [Example 5]
3,0.475 µM,CCc1ccc(Cc2cc(C3OC(CO)C(F)C(O)C3O)ccc2Cl)s1 (centres unmarked) [Example 6]
4,1.3 µM,OCC1OC(c2ccc(Cl)c(Cc3cc4ccccc4s3)c2)C(O)C(O)C1F (centres unmarked) [Example 7]
5,1.5 µM,CCOC(=O)OCC1OC(c2ccc(OC)c(Cc3ccc(OC)cc3)c2)C(O)C(O)C1F (centres unmarked) [Example 12]
6,0.152 µM,COc1ccc(Cc2cc(C3OC(CO)C(F)C(O)C3O)ccc2OC)cc1 (centres unmarked) [Example 13]
7,0.611 µM,COc1ccc(Cc2cc(C3OC(CO)C(F)(F)C(O)C3O)ccc2OC)cc1 (centres unmarked) [Example 15]
8,0.757 µM,CCOc1ccc(Cc2cc(C3OC(CO)C(F)C(O)C3O)ccc2Cl)cc1 (centres unmarked) [Example 17]
9,1.4 µM,COc1ccc(Cc2cc(C3OC(CO)C(F)(F)C(O)C3O)ccc2Cl)cc1 (centres unmarked) [Example 22]
10,1.2 µM,OC[C@H]1O[C@@H](c2ccc(Cl)c(Cc3ccc(O)cc3)c2)[C@H](O)[C@@H](O)C1(F)F [Example 30]
11,2.6 µM,Cc1ccc(C2OC(CO)C(F)(F)C(O)C2O)cc1Cc1ccc(O)cc1 (centres unmarked) [Example 33]
12,1.5 µM,COc1ccc(Cc2cc(C3OC(CO)C(F)(F)C(O)C3O)ccc2C)cc1 (centres unmarked) [Example 34]
13,0.232 µM,COc1ccc(Cc2cc([C@@H]3O[C@H](CO)[C@@H](F)[C@H](O)[C@H]3O)ccc2OC(F)(F)F)cc1 [Example 40]
14,0.331 µM,OC[C@H]1O[C@@H](c2ccc(Cl)c(Cc3ccc(Cl)cc3)c2)[C@H](O)[C@@H](O)[C@@H]1F [Example 44]
15,0.24 µM,COc1ccc(Cc2cc([C@@H]3O[C@H](CO)[C@@H](F)[C@H](O)[C@H]3O)ccc2C(F)(F)F)cc1 [Example 48]
16,0.18 µM,COc1ccc(Cc2cc(C3OC(CO)C(F)C(O)C3O)ccc2Br)cc1 (centres unmarked) [Example 56]
17,0.461 µM,CCc1ccc(Cc2cc(C3OC(CO)C(F)C(O)C3O)ccc2C)cc1 (centres unmarked) [Example 61]
